This is an account of results in PubChem BioAssay (NCI).

Molecules are shown by their SMILES.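 1) Cells in 96-well plates. 2) Compound, 48 h, 5 concentrations. 3) Linear interpolation between surrounding doses. 4) Unreached endpoint = highest concentration. GI50 = concentration required for 50% inhibition of growth. TGI marks complete inhibition of growth.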

Some test systems named below: EKVX NSCLC; HOP-62 NSCLC; MOLT-4 leukemia; OVCAR-4 ovarian; RXF 393 renal; SK-OV-3 ovarian; SNB-19 CNS; UACC-257 melanoma.
Holding throughout (test): growth of human tumour cells (NCI), 48 h

Take `CNC(=O)c1cc(NC(=O)N(CCC#N)CCN(C(=O)N[C@@H](Cc2ccccc2)C(=O)N[C@@H](CC(C)C)C(=O)NC)c2ccccc2)ccc1OC`: the TGI in the assay with EKVX NSCLC was more than 100 µM; with HOP-62 NSCLC it was more than 100 µM; in the assay on MOLT-4 leukemia, more than 100 µM; with OVCAR-4 ovarian, more than 100 µM; in the assay with RXF 393 renal, 99.4 µM; in the assay on SK-OV-3 ovarian, more than 100 µM. The TGI with SNB-19 CNS is more than 100 µM; with UACC-257 melanoma it was 51 µM.

Take `COc1cccc(N(CN2CC=CC2=O)C(C)=O)c1`: the TGI in the assay on EKVX NSCLC, with HOP-62 NSCLC, with MOLT-4 leukemia, in the assay on OVCAR-4 ovarian, with RXF 393 renal and in the assay on SK-OV-3 ovarian was more than 100 µM each time. Besides, the TGI in the assay with SNB-19 CNS and in the assay on UACC-257 melanoma was more than 100 µM in each case.

For the compound `O=C(OCc1ccccc1)C1(N2CN(C3(C(=O)OCc4ccccc4)CCCC3)CN(C3(C(=O)OCc4ccccc4)CCCC3)C2)CCCC1`, the TGI in the assay on EKVX NSCLC, in the assay with HOP-62 NSCLC, in the assay on MOLT-4 leukemia, in the assay on OVCAR-4 ovarian, in the assay on RXF 393 renal and in the assay with SK-OV-3 ovarian was more than 10 µM each time. For the same compound, the TGI with SNB-19 CNS and in the assay with UACC-257 melanoma was more than 10 µM in each case.

With `CN(C)Cc1cc(O)c(O)c(CN(C)C)c1`, the TGI is 71.5 µM in the assay on EKVX NSCLC; more than 100 µM in the assay on HOP-62 NSCLC; more than 100 µM in the assay on MOLT-4 leukemia; more than 100 µM in the assay on OVCAR-4 ovarian; more than 100 µM in the assay on RXF 393 renal; more than 100 µM with SK-OV-3 ovarian. For the same compound, the TGI in the assay on SNB-19 CNS was more than 100 µM; in the assay on UACC-257 melanoma it was 45.9 µM.

Take `O=c1cc(N2CCCC2)[nH]c(=O)n1-c1cccc(C(F)(F)F)c1`: the TGI with EKVX NSCLC, with HOP-62 NSCLC, in the assay with MOLT-4 leukemia, in the assay on OVCAR-4 ovarian, with RXF 393 renal and in the assay with SK-OV-3 ovarian was more than 100 µM each time. For the same compound, the TGI with SNB-19 CNS and with UACC-257 melanoma was more than 100 µM in each case.

With `CC(CO)C1C[C@H](O)[C@@]2(C)CC(=O)C=C(CO)[C@@H]2C1` (stereo partly drawn), the TGI with EKVX NSCLC, in the assay with HOP-62 NSCLC, in the assay on MOLT-4 leukemia, with OVCAR-4 ovarian, in the assay on RXF 393 renal and with SK-OV-3 ovarian was more than 100 µM each time. Further, the TGI in the assay on SNB-19 CNS and in the assay on UACC-257 melanoma was more than 100 µM each time.

Consider `CCCCc1ccc(Nc2ncc3[nH]cnc3n2)cc1`, for which the TGI is 98.1 µM in the assay on EKVX NSCLC; 37.2 µM in the assay with HOP-62 NSCLC; more than 100 µM in the assay with MOLT-4 leukemia; 80.1 µM in the assay with OVCAR-4 ovarian; 49.7 µM in the assay on RXF 393 renal; 38.1 µM with SK-OV-3 ovarian. Moreover, the figures for the TGI with SNB-19 CNS and with UACC-257 melanoma were 44.4 µM and 59 µM, respectively.

Regarding `O=C(CCCCCCCCC(=O)N1C(=O)CC(=O)N(c2cccc(Cl)c2)C1=S)N1C(=O)CC(=O)N(c2cccc(Cl)c2)C1=S`, the TGI with EKVX NSCLC was more than 100 µM; in the assay on HOP-62 NSCLC, more than 100 µM; with MOLT-4 leukemia it was 70.6 µM; with OVCAR-4 ovarian, more than 100 µM; in the assay on RXF 393 renal, more than 100 µM; in the assay with SK-OV-3 ovarian, more than 100 µM. Further, the TGI in the assay with SNB-19 CNS and in the assay on UACC-257 melanoma was more than 100 µM throughout.

Consider `Fc1ccc(N=NN2CCCC2)cc1`, for which the TGI in the assay with EKVX NSCLC, in the assay on HOP-62 NSCLC, in the assay with MOLT-4 leukemia, in the assay with OVCAR-4 ovarian, in the assay with RXF 393 renal and in the assay on SK-OV-3 ovarian was more than 100 µM throughout. In addition, the TGI in the assay on SNB-19 CNS and in the assay with UACC-257 melanoma was more than 100 µM throughout.

Consider `CCOC(=O)/C=C(/C(=O)OCC)n1cc(C)c(=O)n(Cc2cn(COCCOC(C)=O)nn2)c1=O`, for which the TGI is 31.3 µM in the assay with EKVX NSCLC; more than 100 µM in the assay on HOP-62 NSCLC; more than 61.2 µM in the assay on MOLT-4 leukemia; 40 µM in the assay on OVCAR-4 ovarian; more than 70 µM in the assay on RXF 393 renal; more than 100 µM with SK-OV-3 ovarian. For the same compound, the TGI is more than 92.5 µM in the assay on SNB-19 CNS and 49.9 µM in the assay on UACC-257 melanoma.

With `Nc1ccccc1N/C=C\C(=O)C(Cl)(Cl)Cl`, the TGI was 30.5 µM in the assay on EKVX NSCLC; 37.2 µM in the assay with HOP-62 NSCLC; more than 100 µM with MOLT-4 leukemia; 44.4 µM in the assay on OVCAR-4 ovarian; 45.2 µM in the assay on RXF 393 renal; 70.8 µM with SK-OV-3 ovarian. Besides, the TGI in the assay with SNB-19 CNS was more than 100 µM; with UACC-257 melanoma, 64.2 µM.

For the compound `[N-]=[N+]=CC(=O)OCC1SCCCS1`, the TGI with EKVX NSCLC, in the assay with HOP-62 NSCLC, in the assay with MOLT-4 leukemia, in the assay on OVCAR-4 ovarian, with RXF 393 renal and with SK-OV-3 ovarian was more than 100 µM throughout. Besides, the TGI with SNB-19 CNS and in the assay on UACC-257 melanoma was more than 100 µM in each case.

As to `O=C(N/N=C/c1cc(Cl)cc(Cl)c1[O-])c1ccccc1O.O=C(N/N=C/c1cc(Cl)cc(Cl)c1[O-])c1ccccc1O.[Ni+2]`, the GI50 with EKVX NSCLC was 1.33 µM. The TGI is 5.28 µM with EKVX NSCLC; 2.09 µM in the assay on HOP-62 NSCLC; 29.7 µM in the assay on MOLT-4 leukemia; 1.21 µM with OVCAR-4 ovarian; 2.1 µM in the assay with RXF 393 renal; 3.93 µM in the assay on SK-OV-3 ovarian. The TGI is 8.85 µM with SNB-19 CNS and 2.67 µM in the assay on UACC-257 melanoma.

In the case of `NC(=O)c1ccc2c(c1)S(=O)(=O)c1ccccc1C2=O`, the TGI with EKVX NSCLC, in the assay on HOP-62 NSCLC, in the assay with MOLT-4 leukemia, in the assay with OVCAR-4 ovarian, with RXF 393 renal and in the assay on SK-OV-3 ovarian was more than 100 µM in each case. Further, the TGI with SNB-19 CNS and in the assay on UACC-257 melanoma was more than 100 µM each time.

For the compound `COC(OC)C1OC(CO)C(n2ccc(N)nc2=O)C1O` (stereo not drawn), the TGI in the assay on EKVX NSCLC, with HOP-62 NSCLC, in the assay on MOLT-4 leukemia, with OVCAR-4 ovarian, with RXF 393 renal and in the assay on SK-OV-3 ovarian was more than 100 µM in each case. Also, the TGI with SNB-19 CNS and with UACC-257 melanoma was more than 100 µM in each case.

Turning to `O=C1C=C(Br)c2c(Br)sc(Br)c21`, the TGI with EKVX NSCLC was 37.3 µM; in the assay with HOP-62 NSCLC it was more than 79.9 µM; in the assay with MOLT-4 leukemia it was 12.2 µM; with OVCAR-4 ovarian, 34.4 µM; in the assay with RXF 393 renal, 25.7 µM; in the assay on SK-OV-3 ovarian it was 64.3 µM. Also, the TGI with SNB-19 CNS came out at 35.7 µM; with UACC-257 melanoma it was 12.6 µM.

With `CN(NC(=O)CCCl)C1=NCCCCN1`, the TGI in the assay with EKVX NSCLC, in the assay with HOP-62 NSCLC, in the assay on MOLT-4 leukemia, with OVCAR-4 ovarian, with RXF 393 renal and with SK-OV-3 ovarian was more than 100 µM throughout. For the same compound, the TGI with SNB-19 CNS and with UACC-257 melanoma was more than 100 µM each time.

As for `C=CCNC(=O)NC1=CSC2=NC(=O)C3(NN12)c1ccccc1-c1ccccc13`, the TGI with EKVX NSCLC, in the assay on HOP-62 NSCLC, with MOLT-4 leukemia, with OVCAR-4 ovarian, in the assay on RXF 393 renal and with SK-OV-3 ovarian was more than 10 µM in each case. Also, the TGI in the assay with SNB-19 CNS and in the assay with UACC-257 melanoma was more than 10 µM in each case.

In the case of `CSC1=C(C#N)C(=O)N(c2ccc(C)cc2)C(=S)C1C#N` (stereo not drawn), the TGI in the assay with EKVX NSCLC, in the assay on HOP-62 NSCLC, in the assay on MOLT-4 leukemia, with OVCAR-4 ovarian, with RXF 393 renal and with SK-OV-3 ovarian was more than 100 µM each time. The TGI with SNB-19 CNS and in the assay with UACC-257 melanoma was more than 100 µM throughout.

Turning to `C(=C\c1ccccc1)/C=N/c1nc2cc3sc(/N=C/C=C/c4ccccc4)nc3cc2s1`, the TGI in the assay with EKVX NSCLC was more than 100 µM; in the assay with HOP-62 NSCLC, more than 100 µM; with MOLT-4 leukemia, more than 76.1 µM; in the assay with OVCAR-4 ovarian, more than 100 µM; with RXF 393 renal, more than 100 µM; with SK-OV-3 ovarian, more than 100 µM. Also, the TGI with SNB-19 CNS and with UACC-257 melanoma was more than 100 µM throughout.

In the case of `COC(=O)c1cc(C#N)[nH]c1-c1ccc(C)s1`, the TGI in the assay on EKVX NSCLC was 78.6 µM; with HOP-62 NSCLC, more than 100 µM; in the assay with MOLT-4 leukemia, more than 100 µM; in the assay on OVCAR-4 ovarian it was more than 100 µM; in the assay on RXF 393 renal, 46.7 µM; with SK-OV-3 ovarian it was more than 100 µM. The TGI in the assay on SNB-19 CNS and in the assay with UACC-257 melanoma was more than 100 µM throughout.

Consider `COc1ccc(-c2c(N)n(-c3cccc(C(=O)O)c3)c(=O)c3cc([N+](=O)[O-])ccc23)cc1`, for which the TGI with EKVX NSCLC, in the assay on HOP-62 NSCLC, in the assay on MOLT-4 leukemia, in the assay on OVCAR-4 ovarian, in the assay with RXF 393 renal and with SK-OV-3 ovarian was more than 100 µM in each case. Besides, the TGI in the assay on SNB-19 CNS and in the assay with UACC-257 melanoma was more than 100 µM throughout.

For the compound `Cc1sc(/N=C/c2c[nH]c3ccccc23)c(C#N)c1C`, the TGI in the assay with EKVX NSCLC was more than 100 µM; in the assay with HOP-62 NSCLC, more than 100 µM; in the assay with MOLT-4 leukemia it was more than 100 µM; in the assay with OVCAR-4 ovarian, more than 100 µM; in the assay with RXF 393 renal, 74 µM; in the assay with SK-OV-3 ovarian, more than 100 µM. The TGI in the assay on SNB-19 CNS and in the assay with UACC-257 melanoma was more than 100 µM each time.

Consider `C=CCSC1=N/C(=C\c2ccccc2)C(=O)N1CC=C`, for which the TGI with EKVX NSCLC is 77 µM; in the assay with HOP-62 NSCLC, more than 100 µM; in the assay on MOLT-4 leukemia it was 19.1 µM; in the assay on OVCAR-4 ovarian it was more than 100 µM; in the assay with RXF 393 renal it was 60.6 µM; with SK-OV-3 ovarian, more than 100 µM. In addition, the figures for the TGI with SNB-19 CNS and in the assay on UACC-257 melanoma were more than 100 µM and more than 82.5 µM, respectively.
